Data taken from patent US20220009914A1, “Analogs of Nitrofuran Antibiotics to Combat Resistance” (The Trustees of Indiana University, priority 2020, published 2022).
Where two headings read alike, the source gives them in different places.

What was measured:
[1] = test system: Enterococcus faecium strain NCTC 7171 (ATCC #19434); test: bacterial proliferation assay, E. faecium; format: cell-based; settings: read-out: Bacterial Proliferation EC50 E. faecium
Method: (§1) All compounds were evaluated for inhibiting the proliferation of E. coli and each of the ESKAPE bacteria. Results presented represent the averages of EC50 values obtained from at least four replicates. Evaluating compounds for inhibition of bacterial cell proliferation.
(§2) Growth Media: E. coli were grown with LB medium and all ESKAPE bacteria were grown in Brain Heart Infusion (BHI) medium (Becton, Dickinson and Company), with all liquid cultures supplemented with 25 mg/L Ca^2+ and 12.5 mg/L Mg^2+ to mimic physiological free concentrations of these cations. A 10 mg/mL Ca^2+ stock solution was prepared by dissolving 1.84 g of CaCl2.2H2O in 50 mL of deionized water, and a 10 mg/mL Mg^2+ stock solution was prepared by dissolving 4.18 g of MgCl2.6H2O in 50 mL deionized water—filter sterilized using 0.2 μm cellulose-acetate filters. 2.5 mL of the sterile 10 mg/mL Ca^2+ stock and 1.25 mL of the sterile 10 mg/mL Mg^2+ stock solutions were added per 1 L of autoclaved LB or BHI media to obtain 25 mg/L Ca^2+ and 12.5 mg/L Mg^2+ ions, respectively.
(§3) General Assay Protocol: Stock bacterial cultures were streaked onto LB or BHI agar plates and grown overnight at 37° C. Fresh aliquots of cation supplemented media were inoculated with single bacterial colonies and the cultures were grown overnight at 37° C. with shaking (240 rpm). The following morning, cultures were diluted 10-fold into fresh media and grown at 37° C. until bacteria had reached mid-log phase growth (OD600˜0.4-0.6). The cultures were then diluted into fresh media to achieve final OD600 readings of 0.017. Aliquots of these diluted cultures (30 μL) were added to clear, flat-bottom 384-well polystyrene plates that were previously stamped with 0.5 μL of test compounds in 20 μL of media (yielding initial OD600=0.01 bacterial cultures). All compounds were tested in dose-response with concentration ranges during the proliferation assays from 100 μM to 46 nM (3-fold dilution series). A second set of baseline control plates were prepared analogously, but without any bacteria added, to correct for possible compound absorbance and/or precipitation. […] Plates were then read at 600 nm using a Molecular Devices SpectraMax Plus384 microplate reader. […] Results presented represent the averages of EC50 values obtained from at least four replicates.
(§4) Evaluating analogs for inhibiting the growth of E. coli and the ESKAPE bacteria. Analogs were initially tested for antibacterial efficacy against representative strains of antibiotic-sensitive E. coli and the ESKAPE bacteria. To determine compound efficacy, bacterial proliferation assays were carried out in liquid media culture supplemented with physiological concentrations of free calcium and magnesium cations. For these assays, bacterial cultures (OD600=0.01) were exposed to test compounds in 8-point, 3-fold dilution series (100 μM to 46 nM concentration range), in 384-well plates. After addition of compounds to cultures, the plates were sealed with Breathe-Easy gas permeable membranes and allowed to grow to mid-log phase (OD600˜0.4-0.6), whereupon final OD600 readings were taken to assess for bacterial growth and inhibition.

E. coli GroEL/ES = target: T1, E. coli GroEL/ES (Escherichia coli, UniProt P0A6F5); test: GroEL/ES-mediated dRho refolding assay; format: biochemical
T1 construct: made in house; host or cells: GroEL in NEB 5-alpha E. coli; GroES in E. coli BL21 (DE3)
Method: Evaluating compounds for inhibition in the GroEL/ES-mediated dRho refolding assay. Reagent preparation: For this assay, five primary reagent stocks were prepared: 1) GroEL/ES-dRho binary complex stock; 2) ATP initiation stock; 3) thiocyanate enzymatic assay stock; 4) formaldehyde quench stock; 5) ferric nitrate reporter stock. Denatured rhodanese (dRho) was prepared by 3-fold dilution of rhodanese (Roche product #R^1756, diluted to 10 mg/mL with H2O) with denaturant buffer (12 M Urea, 50 mM Tris-HCl, pH 7.4, and 10 mM DTT). Rhodanese was completely denatured by incubating at room temperature for >45 min. The binary complex solution was prepared by slowly adding the dRho stock to a stirring stock of concentrated GroEL in modified folding buffer (50 mM Tris-HCl, pH 7.4, 50 mM KCl, 10 mM MgCl2, 5 mM Na2S2O3, and 1 mM DTT). The solution was centrifuged at 16,000×g for 5 minutes, and the supernatant was collected and added to a solution of GroES in modified folding buffer to give final protein concentrations of 100 nM GroEL, 120 nM GroES, and 80 nM dRho. The binary complex stock was prepared immediately prior to use. For the ATP initiation stock, ATP solid was diluted into modified folding buffer to a final concentration of 2.0 mM. The thiocyanate enzymatic assay stock was prepared to contain 70 mM KH2PO4, 80 mM KCN, and 80 mM Na2S2O3 in water. The formaldehyde quench solution contained 30% formaldehyde in water.
Assay Protocol: First, 10 μL aliquots of the GroEL/ES-dRho complex stock were dispensed into clear, flat-bottom 384-well polystyrene plates. […] After incubating for 40 minutes at 37° C. for the refolding cycle, 30 μL of the thiocyanate enzymatic assay stock was added and incubated for 60 min at room temperature for the refolded rhodanese enzymatic reporter reaction. The reporter reaction was quenched by adding 10 μL of the formaldehyde quench stock, and then 40 μL of the ferric nitrate reporter stock was added to quantify the amount of thiocyanate produced during the enzymatic reporter reaction, which is proportional to the amount of dRho refolded by GroEL/ES. After incubating at room temperature for 15 min, the absorbance by Fe(SCN)3 was measured at 460 nm using a Molecular Devices SpectraMax Plus384 microplate reader. A second set of baseline control plates were prepared analogously, but without GroEL/ES-dRho protein binary solution, to correct for possible interference from compound absorbance or turbidity. […] Results presented represent the averages of IC50 values obtained from at least four replicates.
Evaluating compounds for inhibition in the GroEL/ES-mediated dRho refolding assay. All compounds were evaluated for inhibiting E. coli GroEL/ES-mediated refolding of the denatured Rho reporter enzyme as per our previously reported procedure. Results presented represent the averages of IC50 values obtained from at least four replicates.

[2] = test system: Pseudomonas aeruginosa strain NCTC 10332 (ATCC #10145); test: bacterial proliferation assay, P. aeruginosa; format: cell-based; settings: read-out: Bacterial Proliferation EC50 P. aeruginosa
Method: as §1, §2, §3, §4

[3] = read-out: GroEL/ES-dRho Refolding IC50

T1 sequence (P0A6F5 2-548): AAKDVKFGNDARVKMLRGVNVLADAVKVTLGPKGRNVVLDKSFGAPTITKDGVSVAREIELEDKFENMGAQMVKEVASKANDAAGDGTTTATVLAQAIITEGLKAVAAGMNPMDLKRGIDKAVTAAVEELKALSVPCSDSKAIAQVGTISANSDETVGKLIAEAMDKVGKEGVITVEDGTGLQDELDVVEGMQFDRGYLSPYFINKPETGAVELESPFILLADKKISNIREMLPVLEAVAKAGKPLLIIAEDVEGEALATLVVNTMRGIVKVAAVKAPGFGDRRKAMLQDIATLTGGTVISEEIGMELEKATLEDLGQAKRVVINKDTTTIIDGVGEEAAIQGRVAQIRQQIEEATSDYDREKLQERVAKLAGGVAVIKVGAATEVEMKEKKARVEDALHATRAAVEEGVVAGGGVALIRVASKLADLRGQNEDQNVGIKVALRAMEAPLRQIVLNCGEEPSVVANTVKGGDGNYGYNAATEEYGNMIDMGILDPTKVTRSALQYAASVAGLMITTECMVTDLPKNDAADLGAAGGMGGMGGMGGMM

| SMILES | EC50 [1] [µM] | IC50 (E. coli GroEL/ES) [µM] | EC50 [2] [µM] | IC50 (E. coli GroEL/ES; [3]) [µM] |
| --- | --- | --- | --- | --- |
| CCOc1ccc(S(=O)(=O)Nc2ccc(C(=O)N/N=C/c3ccc(O)c4ncccc34)cc2)cc1 [Compound 15, 4-ethoxy-N-(4-(2-((8-hydroxyquinolin-5-yl)methylene)hydrazine-1-carbonyl)phenyl)benzenesulfonamide] | > 100 | 1.4 | > 100 |  |
| CCOc1ccc(S(=O)(=O)Nc2ccc(C(=O)N/N=C/c3ccc([N+](=O)[O-])o3)cc2)cc1 [Compound 28, 4-ethoxy-N-(4-(2-((5-nitrofuran-2-yl)methylene)hydrazine-1-carbonyl)phenyl)benzenesulfonamide] | > 100 | 66 | > 100 |  |
| O=Cc1ccc([N+](=O)[O-])o1 [Compound 41, reference compound] | 20 | 31 | > 100 |  |
| O=C(N/N=C/c1ccc([N+](=O)[O-])o1)c1ccc(NS(=O)(=O)c2cccs2)cc1 [Compound 26, N-(4-(2-((5-nitrofuran-2-yl)methylene)hydrazine-1-carbonyl)phenyl)thiophene-2-sulfonamide] | 11 | 62 | > 100 |  |
| COc1ccc(C(=O)N/N=C/c2ccc(O)cc2)cc1 [Compound 35, N′-(4-hydroxybenzylidene)-4-methoxybenzohydrazide] | > 100 | > 250 | > 100 |  |
| O=C(N/N=C/c1cccc2ccccc12)c1ccccc1 [Compound 34, N′-(naphthalen-1-ylmethylene)benzohydrazide] | > 100 | 209 | > 100 |  |
| O=C(N/N=C/c1cccc2ncccc12)c1ccccc1 [Compound 32, N′-(quinolin-5-ylmethylene)benzohydrazide] | > 100 | > 250 | > 100 |  |
| O=C(N/N=C/c1ccc([N+](=O)[O-])o1)c1ccncc1 [Compound 19, N′-((5-nitrofuran-2-yl)methylene)isonicotinohydrazide] | 13 | 64 | > 100 |  |
| CCN(CC)S(=O)(=O)c1cccc(C(=O)N/N=C/c2ccc([N+](=O)[O-])o2)c1 [Compound 25, N,N-diethyl-3-(2-((5-nitrofuran-2-yl)methylene)hydrazine-1-carbonyl)benzenesulfonamide] | > 100 | 100 | > 100 |  |
| CN(C)c1ccc(C(=O)N/N=C/c2ccc(O)c3ncccc23)cc1 [Compound 8, 4-(dimethylamino)-N′-((8-hydroxyquinolin-5-yl)methylene)benzohydrazide] | > 100 | 7.9 | > 100 |  |
| O=C(N/N=C/c1ccc(O)c2ncccc12)c1ccc(NS(=O)(=O)c2cccs2)cc1 [Compound 13, N-(4-(2-((8-hydroxyquinolin-5-yl)methylene)hydrazine-1-carbonyl)phenyl)thiophene-2-sulfonamide] | > 100 | 0.81 | > 100 |  |
| O=C(N/N=C/c1ccc(O)c2ccccc12)c1ccccc1 [Compound 30, N′-((4-hydroxynaphthalen-1-yl)methylene)benzohydrazide] | > 100 | 216 | > 100 |  |
| O=C(N/N=C/c1ccc(O)c2ncccc12)c1ccncc1 [Compound 6, N′-((8-hydroxyquinolin-5-yl)methylene)isonicotinohydrazide] | > 100 | > 250 | > 100 |  |
| O=C(N/N=C/c1ccc([N+](=O)[O-])o1)c1cccs1 [Compound 16, N′-((5-nitrofuran-2-yl)methylene)thiophene-2-carbohydrazide] | 24 |  | > 100 | 222 |
| O=C1CN(/N=C/c2ccc(O)c3ncccc23)C(=O)N1 [Compound 2, 1-(((8-hydroxyquinolin-5-yl)methylene)amino)imidazolidine-2,4-dione] | > 100 | 86.4 | > 100 |  |
| O=[N+]([O-])c1ccc(O)c2ncccc12 [Nitroxoline, reference compound] | 18 | 6.4 | 99 |  |
| COc1ccc(C(=O)NN)cc1 [Compound 42, reference compound] | > 100 | > 250 | > 100 |  |
| COc1ccc(C(=O)N/N=C/c2ccccc2)cc1 [Compound 37, N′-benzylidene-4-methoxybenzohydrazide] | > 100 | > 250 | > 100 |  |
| COc1ccc(C(=O)N/N=C/c2ccc([N+](=O)[O-])o2)cc1 [Compound 20, 4-methoxy-N′-((5-nitrofuran-2-yl)methylene)benzohydrazide] | 22 | 108 | > 100 |  |
| O=C(N/N=C/c1ccc(O)c2ncccc12)c1ccc(Cl)s1 [Compound 4, 5-chloro-N′-((8-hydroxyquinolin-5-yl)methylene)thiophene-2-carbohydrazide] | 70 | 1.4 | > 100 |  |
| O=C(N/N=C/c1ccc(O)c2ncccc12)c1cccc2ccccc12 [Compound 9, N′-((8-hydroxyquinolin-5-yl)methylene)-1-naphthohydrazide] | > 100 | 2.1 | > 100 |  |
| O=Cc1ccc(O)c2ncccc12 [Compound 40, reference compound] | 7.3 |  | > 100 | 30 |
| O=C(N/N=C/c1ccc([N+](=O)[O-])o1)c1ccccc1Oc1ccccc1 [Compound 23, N′-((5-nitrofuran-2-yl)methylene)-2-phenoxybenzohydrazide] | 11 |  | > 100 |  |
| COc1ccc(C(=O)N/N=C/c2ccco2)cc1 [Compound 39, N′-(furan-2-ylmethylene)-4-methoxybenzohydrazide] | > 100 | > 250 | > 100 |  |
| COc1ccc(C(=O)N/N=C/c2ccc(O)c3ncccc23)cc1 [Compound 1, N′-((8-hydroxyquinolin-5-yl)methylene)-4-methoxybenzohydrazide] | > 100 |  |  |  |
